According to patent US20170224758A1, “COMPOSITIONS AND METHODS OF TREATING MUSCULAR DYSTROPHY” (THE BROAD INSTITUTE, INC., priority 2014, published 2017):

Target: T1, Myogenin (Mus musculus, UniProt P12979)
T1 construct: electrophoretic mobility shift assays (EMSA) were carried out using muscle cell nuclear extracts; host or cells: C2C12 nuclear extract
T1 sequence (P12979 1-224): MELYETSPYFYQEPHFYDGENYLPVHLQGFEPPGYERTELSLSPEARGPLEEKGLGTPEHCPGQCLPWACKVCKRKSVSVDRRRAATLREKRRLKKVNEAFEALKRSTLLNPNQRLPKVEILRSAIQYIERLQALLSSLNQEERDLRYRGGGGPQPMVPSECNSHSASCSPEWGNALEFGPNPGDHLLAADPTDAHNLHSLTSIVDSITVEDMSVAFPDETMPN
Assay: Electrophoretic mobility shift assay (EMSA) with muscle cell nuclear extracts
Type: binding
Details: biotin labeled probe, C2C12 nuclear extract

CTCCTTTATTTCAGCGGAACTAAAGAAGTCTC (DNA, backbone and methylation of C not given here; duplex with complementary strand, biotin-labeled probe or unlabeled competitor) [G probe]
binding of Myogenin protein (EMSA): did not bind at all

CTCCTTTATTTCAGCTGAACTAAAGAAGTCTC (DNA, backbone and methylation of C not given here; duplex with complementary strand, biotin-labeled probe or unlabeled competitor) [T probe, biotin labeled duplex EMSA probe with the escaper variant of the Jagged1 promoter]
binding of Myogenin protein (EMSA): robustly bound
